Experiment [1] has as its system APAE006 in the presence of 8 micrograms per milliliter of polymyxin B nonapeptide. The experiment is classed as cell-based, P. aeruginosa. The conditions noted are these: APAE006 with 8 micrograms per milliliter polymyxin B nonapeptide. As for the experimental part: (§1) Bacterial isolates were cultivated from −70° C. frozen stocks by overnight passages at 35° C. in ambient air on Mueller-Hinton agar (Beckton Dickinson, Franklin Lakes, N.J.). Clinical isolates tested were obtained from various geographically diverse hospitals in the US and abroad (Focus Diagnostics, Herndon, Va. and JMI, North Liberty, Iowa). Quality control strains were from the American Type Culture Collection (ATCC; Rockville, Md.). Additional primary panel strains were generated using standard molecular biology techniques.
(§2) Minimum Inhibitory Concentrations (MICs) were determined by the broth microdilution method in accordance with the Clinical and Laboratory Standards Institute (CLSI) guidelines. In brief, organism suspensions were adjusted to a 0.5 McFarland standard to yield a final inoculum between 3×10^5 and 7×10^5 colony-forming units (CFU)/mL. Drug dilutions and inocula were made in sterile, cation adjusted Mueller-Hinton Broth (Beckton Dickinson). An inoculum volume of 100 μL was added to wells containing 100 μL of broth with 2-fold serial dilutions of drug. All inoculated microdilution trays were incubated in ambient air at 35° C. for 18-24 hours. […] Performance of the assay was monitored by the use of laboratory quality-control strains and levofloxacin, a compound with a defined MIC spectrum, in accordance with CLSI guidelines.
(§3) *AECO001 is ATCC25922, AECO063 is ATCC25922 bearing an acrAB mutation, APAE001 is ATCC27853, APAE006 is a strain of P. aeruginosa in which all efflux pumps are inactivated, APAE006+PMBN indicates MICs with the indicated strain in the presence of 8 micrograms per milliliter of polymyxin B nonapeptide, AABA1060 is a clinical isolate of Acinetobacter baumannii, ASAU001 is a laboratory strain of S. aureus (ATCC29213).

The subject of experiment [2] is ASAU001 (laboratory strain of S. aureus, ATCC29213). In words: MIC broth microdilution, ASAU001. The conditions noted are these: Staphylococcus aureus, ATCC29213, read-out: MIC ASAU001. Type of experiment: cell-based. The protocol: as §1, §2, §3
A general note: Broth dilution looks for growth in wells or tubes with falling amounts of substance.

Another experiment deals with APAE001 (ATCC27853). Description: MIC broth microdilution, APAE001. The experiment is classed as cell-based, P. aeruginosa. Conditions: Pseudomonas aeruginosa, ATCC27853, read-out: MIC APAE001, APAE001 (ATCC27853). As for the experimental part: as §1, §2, §3
In a further experiment the test system is AECO001 (ATCC25922). In words: MIC broth microdilution, AECO001. Conditions: Escherichia coli. Type of experiment: cell-based, E. coli. The protocol:
as §1, §2, §3

Experiment [3] deals with APAE006 (strain of P. aeruginosa in which all efflux pumps are inactivated). In words: microbe, parasite or virus in culture. Type of experiment: cell-based. Conditions: Pseudomonas aeruginosa, read-out: MIC APAE006, APAE006, all efflux pumps inactivated. As for the experimental part: as §1, §2, §3
Experiment [4] concerns AABA1060 (clinical isolate of Acinetobacter baumannii). Description: MIC broth microdilution, AABA1060. Type of experiment: cell-based. Conditions: Acinetobacter baumannii, read-out: MIC AABA1060. The protocol:
as §1, §2, §3

Experiment [5] relates to AECO063 (ATCC25922 bearing an acrAB mutation). Description: microbe, parasite or virus in culture. Type of experiment: cell-based, E. coli. The conditions noted are these: Escherichia coli, ATCC25922, read-out: MIC AECO063. The protocol: as §1, §2, §3
Where [6] appears, read: ATCC25922, read-out: MIC AECO001.
Setting [7] is: ATCC25922, read-out: MIC AECO001 HSA AGP.

Each structure is given as a SMILES string. ≈ marks a conversion by molar mass, not a printed value. Where two headings read alike, the source gives them in different places.

This note sets out measurements from patent publication US9617256B2 (priority 2007, dated 2017).

As for `CC(C)/C=C/C#Cc1ccc(C(=O)N[C@H](C(=O)NO)C(C)(C)N)cc1` [Example 107-6], the “MIC APAE006 + PMBN” value in experiment [1] is given as “A (MIC's of 2.0 μg/mL or less = A)”. Besides, the MIC in experiment [2] is 16 to 64 µg/mL (≈ 46.6 to 186 µM); in the experiment with APAE001 (ATCC27853), 2 to 16 µg/mL (≈ 5.82 to 46.6 µM); with AECO001 (ATCC25922) (setting [6]) it was less than 2 µg/mL; in the experiment with AECO001 (ATCC25922) (setting [7]), 2 to 16 µg/mL (≈ 5.82 to 46.6 µM); in experiment [3] it was less than 2 µg/mL; in experiment [4], less than 2 µg/mL. Also, the MIC in experiment [5] is less than 2 µg/mL.

For `C[C@@H](N)[C@H](NC(=O)c1ccc(C#CC#Cc2ccc(OC3CC3)cc2)cc1)C(=O)NO` [Example 84-1, N-((1S,2R)-2-Amino-1-hydroxycarbamoyl-propyl)-4-[4-(4-cyclopropoxy-phenyl)-buta-1,3-diynyl]-benzamide], the “MIC APAE006 + PMBN” value in experiment [1] is “A (MIC's of 2.0 μg/mL or less = A)”. The MIC was 16 to 64 µg/mL (≈ 38.3 to 153 µM) in experiment [2]; 16 to 64 µg/mL (≈ 38.3 to 153 µM) in the experiment with APAE001 (ATCC27853); less than 2 µg/mL with AECO001 (ATCC25922) (setting [6]); 2 to 16 µg/mL (≈ 4.79 to 38.3 µM) in the experiment with AECO001 (ATCC25922) (setting [7]); 2 to 16 µg/mL (≈ 4.79 to 38.3 µM) in experiment [3]; 16 to 64 µg/mL (≈ 38.3 to 153 µM) in experiment [4]. Besides, in experiment [5], the MIC was less than 2 µg/mL.

`CC(C)(N)[C@@H](NC(=O)c1ccc(C#Cc2ccc(CNC3CC3)cc2)cc1)C(=O)NO` [Compound 121-2]: the “MIC APAE006 + PMBN” value in experiment [1] is given as “A (MIC's of 2.0 μg/mL or less = A)”. Further, the MIC in experiment [2] is 16 to 64 µg/mL (≈ 38 to 152 µM); with APAE001 (ATCC27853) it was 16 to 64 µg/mL (≈ 38 to 152 µM); with AECO001 (ATCC25922) (setting [6]) it was 2 to 16 µg/mL (≈ 4.76 to 38 µM); in the experiment on AECO001 (ATCC25922) (setting [7]), 16 to 64 µg/mL (≈ 38 to 152 µM); in experiment [3], less than 2 µg/mL; in experiment [4], 16 to 64 µg/mL (≈ 38 to 152 µM). For the same molecule, the MIC in experiment [5] is 2 to 16 µg/mL (≈ 4.76 to 38 µM).

For `C[C@@H](N)[C@H](NC(=O)c1ccc(C#C/C=C/C2CC2)cc1)C(=O)NO` [Example 107-2], the “MIC APAE006 + PMBN” value in experiment [1] is on record as “A (MIC's of 2.0 μg/mL or less = A)”. Further, the MIC was 2 to 16 µg/mL (≈ 6.11 to 48.9 µM) in experiment [2]; less than 2 µg/mL in the experiment with APAE001 (ATCC27853); less than 2 µg/mL with AECO001 (ATCC25922) (setting [6]); 2 to 16 µg/mL (≈ 6.11 to 48.9 µM) with AECO001 (ATCC25922) (setting [7]); less than 2 µg/mL in experiment [3]; less than 2 µg/mL in experiment [4]. The MIC in experiment [5] was less than 2 µg/mL.

As to `CC(C)(N)[C@H](NC(=O)c1ccc(C#C/C=C/C2CC2)cc1)C(=O)NO` [Example 107-4], in experiment [1], the “MIC APAE006 + PMBN” value was “A (MIC's of 2.0 μg/mL or less = A)”. The MIC in experiment [2] was 2 to 16 µg/mL (≈ 5.86 to 46.9 µM); in the experiment with APAE001 (ATCC27853), less than 2 µg/mL; in the experiment with AECO001 (ATCC25922) (setting [6]), less than 2 µg/mL; in the experiment on AECO001 (ATCC25922) (setting [7]), less than 2 µg/mL; in experiment [3], less than 2 µg/mL; in experiment [4] it was less than 2 µg/mL. Also, the MIC in experiment [5] is less than 2 µg/mL.

As for `C[C@@H](NCC(=O)N[C@H](C)[C@H](NC(=O)c1ccc(C#Cc2ccccc2)cc1)C(=O)NO)c1ccccc1` [Example 132-6], the “MIC APAE006 + PMBN” value in experiment [1] was “A (MIC's of 2.0 μg/mL or less = A)”. Moreover, the MIC in experiment [2] is 16 to 64 µg/mL (≈ 32.1 to 128 µM); in the experiment with APAE001 (ATCC27853), 16 to 64 µg/mL (≈ 32.1 to 128 µM); in the experiment on AECO001 (ATCC25922) (setting [6]), 2 to 16 µg/mL (≈ 4.01 to 32.1 µM); in the experiment on AECO001 (ATCC25922) (setting [7]), 16 to 64 µg/mL (≈ 32.1 to 128 µM); in experiment [3], less than 2 µg/mL; in experiment [4] it was 16 to 64 µg/mL (≈ 32.1 to 128 µM). Also, the MIC in experiment [5] is less than 2 µg/mL.

Turning to `CC(C)(O)[C@H](NC(=O)c1ccc(C#CC#Cc2ccc(F)cc2)cc1)C(=O)NO` [Example 82-19], in experiment [1], the “MIC APAE006 + PMBN” value was “A (MIC's of 2.0 μg/mL or less = A)”. Moreover, the MIC is 16 to 64 µg/mL (≈ 40.6 to 162 µM) in experiment [2]; 2 to 16 µg/mL (≈ 5.07 to 40.6 µM) in the experiment with APAE001 (ATCC27853); less than 2 µg/mL in the experiment with AECO001 (ATCC25922) (setting [6]); 2 to 16 µg/mL (≈ 5.07 to 40.6 µM) in the experiment on AECO001 (ATCC25922) (setting [7]); less than 2 µg/mL in experiment [3]; less than 2 µg/mL in experiment [4]. The MIC in experiment [5] is less than 2 µg/mL.

For `CC(C)C#C/C=C/c1ccc(C(=O)N[C@H](C(=O)NO)C(C)(C)N)cc1` [Example 114-19], the “MIC APAE006 + PMBN” value in experiment [1] is “A (MIC's of 2.0 μg/mL or less = A)”. Further, the MIC in experiment [2] is 2 to 16 µg/mL (≈ 5.82 to 46.6 µM); in the experiment with APAE001 (ATCC27853), less than 2 µg/mL; with AECO001 (ATCC25922) (setting [6]), less than 2 µg/mL; with AECO001 (ATCC25922) (setting [7]), 2 to 16 µg/mL (≈ 5.82 to 46.6 µM); in experiment [3], less than 2 µg/mL; in experiment [4], less than 2 µg/mL. In addition, the MIC in experiment [5] was less than 2 µg/mL.

For `CC(C)(O)[C@H](NC(=O)c1ccc(C#CC#Cc2cncnc2)cc1)C(=O)NO` [Example 89-7], the “MIC APAE006 + PMBN” value in experiment [1] is “A (MIC's of 2.0 μg/mL or less = A)”. For the same molecule, the MIC in experiment [2] was 16 to 64 µg/mL (≈ 42.3 to 169 µM); with APAE001 (ATCC27853), 2 to 16 µg/mL (≈ 5.29 to 42.3 µM); with AECO001 (ATCC25922) (setting [6]) it was 2 to 16 µg/mL (≈ 5.29 to 42.3 µM); in the experiment on AECO001 (ATCC25922) (setting [7]) it was 2 to 16 µg/mL (≈ 5.29 to 42.3 µM); in experiment [3] it was less than 2 µg/mL; in experiment [4], 16 to 64 µg/mL (≈ 42.3 to 169 µM). Also, in experiment [5], the MIC is less than 2 µg/mL.
